Laboratory results reported in article PMC7047272 (ACS Central Science, 2020).

What was measured:
[1] = biological target: β5i of mouse 20S immunoproteasome (IP) (Mus musculus, UniProt P28063); assay: biochemical
[2] = biological target: β2 of human 20S constitutive proteasome (CP) (Homo sapiens, UniProt Q99436); assay: Fluorogenic substrate hydrolysis, trypsin-like activity; format: biochemical
[3] = biological target: β5i of human 20S immunoproteasome (IP) (Homo sapiens, UniProt P28062); assay: Fluorogenic substrate hydrolysis, chymotrypsin-like activity; format: biochemical
[4] = biological target: β5 of mouse 20S constitutive proteasome (CP) (Mus musculus, UniProt O55234); assay: as above; format: biochemical
[5] = test system: chymotrypsin-like activity in live LCL721.145 cells (containing immunoproteasome); format: cell-based, human; settings: MeO-Suc-GLF-AMC, up to 1 μM
[6] = biological target: β2i of human 20S immunoproteasome (IP) (Homo sapiens, UniProt P40306); assay: Fluorogenic substrate hydrolysis, trypsin-like activity; format: biochemical
[7] = biological target: β5 of human 20S constitutive proteasome (CP) (Homo sapiens, UniProt P28074); assay: Fluorogenic substrate hydrolysis, chymotrypsin-like activity; format: biochemical
[8] = biological target: β2 of mouse 20S constitutive proteasome (CP) (Mus musculus, UniProt P70195); format: biochemical; settings: at concentrations up to 1 μM
[9] = biological target: β1i (LMP2) of mouse 20S immunoproteasome (IP) (Mus musculus, UniProt P28076); assay: biochemical
[10] = biological target: β2i of mouse 20S immunoproteasome (IP) (Mus musculus, UniProt O35955); assay: biochemical; format: biochemical

Work on `CCCCCCC/C=C/C=C/C(=O)N[C@H](C(=O)N[C@H]1CCCCNC(=O)/C=C/[C@H](C)NC1=O)[C@@H](C)O` [LumA, luminmycin A] yielded an IC50 [1] of 8.9 nM, an IC50 [2] of 260 nM and an IC50 [3] of 1600 nM. For the same compound, the IC50 [4] was 32 nM, the “inhibition of chymotrypsin-like activity in live cells (cell permeability)” value [5] was “inactive” and the IC50 [6] was 170 nM. It also gave an IC50 [7] of 39 nM.
In the case of `CCCCCCC/C=C/C=C/C(=O)N[C@H](C(=O)N[C@H]1C[C@@H](O)CCNC(=O)/C=C/[C@H](C)NC1=O)[C@@H](C)O` [GlbA, glidobactin A], the IC50 [1] is reported as 1.1 nM, the IC50 [2] is reported as 15 nM and the “effect on β2 of the constitutive proteasome” value [8] is reported as “almost unaffected”. For the same compound, the IC50 [3] was 25 nM, the IC50 [9] was 250 nM and the IC50 [4] was 0.65 nM. The IC50 [10] was 1.4 nM, the “selectivity β2/β2i” value [10] was over 714 and the “inhibition of chymotrypsin-like activity in live cells (cell permeability)” value [5] was “inactive”. It also gave an IC50 [6] of 42 nM and an IC50 [7] of 3.6 nM.
